Experimental data reported in publication PMC9266004, “Potential Common Mechanisms of Cytotoxicity Induced by Amide Herbicides via TRPA1 Channel Activation” (International Journal of Environmental Research and Public …, 2022).
Where two headings read alike, the source gives them in different places.

Experiments:
A549 cells [1] = experiment: LDH cytotoxicity assay; type: cell-based, human; settings: 150, 300, 600, 1200 μM, 24 h
Procedure: (§1) Wild-type (WT) and TRPA1-KO A549 cells were cultured in McCoy’s 5A Media and F-12K Nutrient Mixture containing 10% fetal bovine serum, respectively. WT/TRPA1-KO A549 cells (5 × 10^4 cells/mL) were seeded in 96-well (100 μL/well) and 6-well (2 mL/well) plates and incubated at 37 °C with 5% CO2 in a humidified incubator for 24 h. WT/TRPA1-KO A549 cells were treated with AHs gradient concentrations (0, 150, 300, 600, 1200 μM) prepared in methanol (1.2 M) for 24 h. Additionally, WT/TRPA1-KO A549 cells were pre-treated with TRPA1 special inhibitor HC-030031 (100 μM) for 0.5 h and then treated with AHs gradient concentrations for 24 h.
Using the Cytotoxicity LDH Assay Kit, lysis buffer (10 μL) was added to the high control well of a 96-well plate containing WT/TRPA1-KO A549 cells, which was then incubated for 0.5 h. Working solution was prepared by adding 5 mL assay buffer to the dye mixture vial, of which 100 μL was added to each well. The plate was protected from light and incubated at room temperature for 0.5 h. Subsequently, 50 μL stop solution was added to each well and the absorbance was measured immediately at 490 nm using a microplate reader (BNR05740, Molecular Devices). The average absorbance was calculated from each sextuplicate set of wells and the background control value was subtracted from each absorbance value. The percentage cytotoxicity was determined using the following equation:cytotoxicity (%) = [(Aa − Ab1)/(Ab2 − Ab1)] × 100% where Aa is the absorbance of the experimental well (containing medium, cells, and compound); Ab2 is the absorbance of the high control well (containing medium, cells, and lysis buffer); and Ab1 is the absorbance of the low control well (containing medium and cells).

A549 cells [2] = experiment: CCK-8 cell viability assay in WT A549 cells; type: cell-based, human; settings: for viability of A549 cells compared with 0 μM AHs: 150, 300, 600, 1200 μM, 24 h; for viability of A549 cells compared with 0 μM AHs / IC50: CCK-8; for viability with HC-030031 pre-treatment compared with AHs treatment alone: A549 cells, HC-030031 50 μM, AHs 150, 300, 600 μM
Procedure: as §1, with “Additionally, WT/TRPA1-KO A549 cells were pre-treated with TRPA1 special inhibitor HC-030031 (100 μM) for 0.5 h and then treated with AHs gradient concentrations for 24 h.” left out
To conduct the cell viability assay, the growth medium was removed from WT/TRPA1-KO A549 cells cultured in a 96-well plate. CCK-8 reagent was mixed with complete medium (1:9 volume ratio), and 100 µL of the CCK-8 reagent mixture was added to each well. The plate was incubated for 4 h and the absorbance was measured at 450 nm using a microplate reader (BNR05740; Molecular Devices, Sunnyvale, CA, USA). The average absorbance from each sextuplicate set of wells was calculated and the background control value was subtracted from each absorbance value. The percentage cell viability was determined using the following equation:cell viability (%) = [(As − Ab)/(Ac − Ab)] × 100% where As is the absorbance of the experimental well (containing medium, CCK-8 reagent, cells, and compound); Ac is the absorbance of the control well (containing medium, CCK-8 reagent, and cells); and Ab is the absorbance of the blank well (containing medium and CCK-8 reagent).

[3] = system: calcium influx in TRPA1-KO A549 cells; experiment: Cellular calcium imaging (Fluo-4) in TRPA1-KO A549 cells; type: cell-based, human; settings: AHs 150-1200 μM
Procedure: The hTRPA1 gene sequence (Gene ID: 8989) was obtained from the National Center for Biotechnology Information (NCBI) website (https://www.ncbi.nlm.nih.gov/gene/8989 accessed on 26 May 2022). Three gRNA sequences, namely, T1: 5′-[…]-[…], T16: 5′-[…]-3′, and T20: 5′-[…]-3′, were designed using the CRISPR online design tool (http://crispr.mit.edu/ accessed on 26 May 2022). Transfection of cells with gRNA-Cas9 was validated in test cells. Cell pool examination was performed using Sanger sequencing. Sequencing and tracer analysis were performed using the online tool TIDE (https://tide-calculator.nki.nl/ accessed on 26 May 2022) to investigate the cleavage efficiency of T1, T16, and T20. Cells from the cell pool were diluted in 96-well plates. Clones were observed under a microscope and wells containing single cell clones were labeled. Single cell clones were transferred to 24-well plates for expansion. Validation of knockout (KO) clones was performed via sequencing to confirm insertion and deletion on the genomes of KO clone candidates. Furthermore, mycoplasmas were detected for cloned cells with high KO using the Mycoplasma PCR Detection Kit.
as §1
(§2) Working solution was prepared according to the instructions of the Fluo-4 Direct calcium assay kit and directly added to WT/TRPA1-KO A549 cells in 96-well plates, which were incubated for 0.5 h and kept away from light after removal from the incubator. Single channel fluorescein isothiocyanate (FITC) levels were measured using a confocal high-content imaging system (IXM-C S150069, Molecular Devices, San Jose, CA, USA).

[4] = system: calcium influx in A549 cells; experiment: Cellular calcium imaging (Fluo-4) in WT A549 cells; type: cell-based, human; settings: for calcium influx compared with 0 μM AHs: A549 cells, 150, 300, 600, 1200 μM; for calcium influx with HC-030031 pre-treatment compared with AHs treatment alone: A549 cells, HC-030031 50 μM, AHs 150-1200 μM
Procedure: as §1, with “Additionally, WT/TRPA1-KO A549 cells were pre-treated with TRPA1 special inhibitor HC-030031 (100 μM) for 0.5 h and then treated with AHs gradient concentrations for 24 h.” left out
as §2

zebrafish embryos = settings: cited from earlier work
[5] = Homo sapiens, WT A549 cells, 24 h treatment, read-out: IC50 values of AHs, A549 Cells
[6] = WT A549 cells pre-treated with HC-030031 50 μM, then AHs 24 h, read-out: IC50 values of AHs, A549 Cells + HC-030031 50 μM

Structure (SMILES) | cell damage (LDH) compared with 0 μM AHs (A549 cells [1]) | viability of A549 cells compared with 0 μM AHs (A549 cells [2]) | viability with HC-030031 pre-treatment compared with AHs treatment alone (A549 cells [2]) | IC50 (A549 cells [2]; [5]) | IC50 (A549 cells [2]; [6]) | calcium influx with KO of TRPA1 compared with AHs-treated WT cells [3] | calcium influx compared with 0 μM AHs [4] | calcium influx with HC-030031 pre-treatment compared with AHs treatment alone [4] | toxic effects (zebrafish embryos)
CCc1cccc(C)c1N(C(=O)CCl)C(C)COC (stereo not shown) [Metolachlor, metolachlor] | significantly increased cell damage | significantly decreased | significantly increased viability | 430 µM | 620 µM | significantly decreased calcium influx | significantly increased | significantly decreased calcium influx | –
CCCOCCN(C(=O)CCl)c1c(CC)cccc1CC [Pretilachlor, pretilachlor] | significantly increased cell damage | significantly decreased | significantly increased viability | 2330 µM | 4460 µM | significantly decreased calcium influx | significantly increased | significantly decreased calcium influx | endocrine disorder, cell apoptosis, and immunotoxicity
CCC(=O)Nc1ccc(Cl)c(Cl)c1 [Propanil, propanil] | significantly increased cell damage | significantly decreased | significantly increased viability | 831 µM | 2290 µM | significantly decreased calcium influx | significantly increased | significantly decreased calcium influx | –
